Experimental data as given in patent US8470829B2 (priority 2004, dated 2013).
Like-named read-outs stand apart in the source and are kept apart here.

Assays:
human androgen receptor [1] = target: T1, human androgen receptor (Homo sapiens, UniProt P10275); experiment: Investigation of antagonist effect on androgen receptor (reporter gene assay, 11A11B2 cells, with DHT); assay type: cell-based
T1 construct: expressed in transfected cells
T1 sequence (P10275 1-920): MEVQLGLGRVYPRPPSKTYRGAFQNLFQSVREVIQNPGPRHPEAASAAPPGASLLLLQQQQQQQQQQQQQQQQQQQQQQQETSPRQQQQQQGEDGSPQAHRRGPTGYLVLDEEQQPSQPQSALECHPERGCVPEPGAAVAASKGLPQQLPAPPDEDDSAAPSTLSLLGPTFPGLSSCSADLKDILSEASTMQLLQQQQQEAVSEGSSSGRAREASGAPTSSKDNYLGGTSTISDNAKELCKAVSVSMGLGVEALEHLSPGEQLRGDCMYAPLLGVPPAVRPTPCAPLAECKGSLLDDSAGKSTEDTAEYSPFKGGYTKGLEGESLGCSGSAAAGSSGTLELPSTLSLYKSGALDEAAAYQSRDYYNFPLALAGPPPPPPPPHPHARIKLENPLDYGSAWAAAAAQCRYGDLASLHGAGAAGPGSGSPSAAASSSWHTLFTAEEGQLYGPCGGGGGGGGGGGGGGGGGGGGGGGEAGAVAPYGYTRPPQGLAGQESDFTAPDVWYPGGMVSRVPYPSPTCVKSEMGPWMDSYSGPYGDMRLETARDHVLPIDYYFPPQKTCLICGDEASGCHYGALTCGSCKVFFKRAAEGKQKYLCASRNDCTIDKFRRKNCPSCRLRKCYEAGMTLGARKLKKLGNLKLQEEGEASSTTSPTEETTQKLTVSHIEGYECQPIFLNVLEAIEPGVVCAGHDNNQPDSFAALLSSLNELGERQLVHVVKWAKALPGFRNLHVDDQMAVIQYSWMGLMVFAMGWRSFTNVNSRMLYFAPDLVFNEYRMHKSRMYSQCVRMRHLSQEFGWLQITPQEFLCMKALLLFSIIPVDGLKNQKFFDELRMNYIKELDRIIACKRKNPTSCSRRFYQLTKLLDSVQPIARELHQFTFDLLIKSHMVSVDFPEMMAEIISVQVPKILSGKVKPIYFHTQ
Method: (§1) HeLa cells (purchased from Dai-Nippon Seiyaku K. K.) were cultured overnight in Dulbecco's Modified Eagle Medium containing no phenol red, but containing 3% charcoal-treated fetal bovine serum (hereafter referred to as DCC-FBS) (this medium is hereafter referred to as phenol-red-free DMEM). An MMTV-Luc-Hyg vector (reporter plasmid with mouse mammary tumor virus long terminal repeat, containing an androgen response element and a hygromycin resistance gene: a vector obtained by substituting a chloramphenicol acetyl transferease gene of a GM-CAT vector (A.T.C.C No. 67282) purchased from the A.T.C.C. with the firefly luciferase gene, and inserting a hygromycin resistance gene as a drug resistant gene), and pSG5-hAR-neo (human androgen receptor expression vector: a vector having an androgen receptor gene under the control of the SV40 promoter, and having a neomycin resistance gene inserted as a drug resistance gene) were transfected into the HeLa cells using an FuGENE™ 6 Transfection Reagent (obtained from Roche).
(§2) The clone cells thus obtained (11A11B2 cells) were maintained and propagated using DMEM containing 400 μg/mL neomycin, 200 μg/mL hygromycin and 10% FBS, and were propagated using phenol-red-free DMEM containing 10% DCC-FBS three to four days prior to the performance of an androgen receptor reporter gene assay.
The 11A11B2 cells were inoculated in a white clear-bottomed 96-well microplate (COSTAR) so that the cell concentration was 1.0×10^4/well, and were cultured overnight. The assay medium containing DHT was added so that the final concentration of DHT was 0.1 nmol/L, and samples of the assay medium containing the compounds of the Examples or compounds of the Comparative Examples were added so that the final concentrations of the compounds of the Examples or compounds of the Comparative Examples were 1, 10, 100, 1,000 and 10,000 nmol/L, respectively. After culturing for 48, hours, the transcription activity values were measured. The transcription activity was measured using a Bright-Glo™ Luciferase Assay System (Promega).
(§3) The transcription activity rates of the compounds of the Examples were calculated from the transcription activity measured by the abovementioned method, with the transcription activity value obtained at 0.1 nmol/L DHT taken as 100%, and the transcription activity value in the case of the assay, medium alone taken as 0%.

human androgen receptor [2] = target: T1, human androgen receptor; experiment: Measurement of agonist effect on androgen receptor (reporter gene assay, 11A11B2 cells); assay type: cell-based; settings: compound concentration showing a transcription activity of 5% (0.1 nmol/L DHT = 100%, assay medium alone = 0%), 48 hours
Method: as §1, §2
The 11A11B2 cells were inoculated in a white clear-bottomed 96-well microplate (COSTAR) so that the cell concentration was 1.0×10^4/well, and were cultured overnight using phenol-red-free DMEM containing 3% DCC-FBS (hereafter referred to as the assay medium). Samples of the assay medium containing the compounds of the Examples and compounds of the Comparative Examples were added so that the final concentrations of the compounds of the Examples and compounds of the Comparative Examples were 1, 10, 100, 1,000 and 10,000 nmol/L), and the cells were cultured for 48 hours, after which the transcription activity value was measured. The transcription activity was measured using a Bright-Glo™ Luciferase Assay System (Promega).
as §3, with “assay” for “assay,”, “0%. The compound concentration showing a transcription activity of 5% (EC5 value) was calculated from a linear equation for two points on either side of 5%.” for “0%.”

[3] = with 0.1 nmol/L DHT, transcription activity rate of Test Example 1 subtracted, 11A11B2 cells, 48 hours, read-out: IC50

Row | SMILES | IC50 (human androgen receptor [1]; [3]) [nM] | EC5 (human androgen receptor [2]) [µM] | IC50 (human androgen receptor [1]) [nM]
1 | CC(=O)N1CCC(N2C(=S)N(c3ccc(C#N)c(C(F)(F)F)c3)C(=O)C2(C)C)CC1 [Example 4, 4-[3-(1-acetylpiperidin-4-yl)-4,4-dimethyl-5-oxo-2-thioxoimidazolidin-1-yl]-2-trifluoromethylbenzonitrile] | 300 | >10 | –
2 | CC1(C)C(=O)N(c2ccc(C#N)c(Cl)c2)C(=S)N1c1ccc(Cl)c(NC(=O)OCC(O)CO)c1 (stereo not drawn) [Example 50, {2-chloro-5-[3-(4-cyano-3-chlorophenyl)-5,5-dimethyl-4-oxo-2-thioxoimidazolidin-1-yl]phenyl}-carbamic acid 2,3-dihydroxypropyl ester] | – | >10 | 300
3 | CCCNC(=O)N1CCC(N2C(=S)N(c3ccc(C#N)c(C(F)(F)F)c3)C(=O)C2(C)C)CC1 [Example 39, 4-[3-(1-n-propylaminocarbonylpiperidin-4-yl)-4,4-dimethyl-5-oxo-2-thioxoimidazolidin-1-yl]-2-trifluoromethylbenzonitrile] | 900 | >10 | –
4 | CC(=O)Nc1nc2cc(N3C(=S)N(c4ccc(C#N)c(Cl)c4)C(=O)C3(C)C)ccc2s1 [Example 16, 4-[3-(2-acetylaminobenzothiazol-5-yl)-4,4-dimethyl-5-oxo-2-thioxoimidazolidin-1-yl]-2-chlorobenzonitrile] | – | 3 | 40
5 | CCOC(=O)Nc1cc(N2C(=O)N(c3ccc(C#N)c(OC)c3)C(=O)C2(C)C)ccc1Cl [Example 24, 4-[3-(3-ethoxycarbonylamino-4-chlorophenyl)-4,4-dimethyl-2,5-dioxoimidazolidin-1-yl]-2-methoxybenzonitrile] | 200 | >10 | –
6 | COc1cc(N2C(=O)C(C)(C)N(c3ccc(Cl)c(NC(=O)OCCN(C)C)c3)C2=S)ccc1C#N [Example 54, {2-chloro-5-[3-(4-cyano-3-methoxyphenyl)-5,5-dimethyl-4-oxo-2-thioxoimidazolidin-1-yl]phenyl}-carbamic acid 2-dimethylaminoethyl ester] | 500 | >10 | –
7 | CCCS(=O)(=O)N1CCC(N2C(=S)N(c3ccc(C#N)c(Cl)c3)C(=O)C2(C)C)CC1 [Example 8, 4-[3-(1-propanesulfonylpiperidin-4-yl)-4,4-dimethyl-5-oxo-2-thioxoimidazolidin-1-yl]-2-chlorobenzonitrile] | – | >10 | 300
8 | CC1(C)C(=O)N(c2ccc(C#N)c(Cl)c2)C(=S)N1c1ccc2sc(NC(=O)OCC(O)CO)nc2c1 (stereo not drawn) [Example 65, {5-[3-(3-chloro-4-cyanophenyl)-5,5-dimethyl-4-oxo-2-thioxoimidazolidin-1-yl]benzothiazol-2-yl}carbamic acid 2,3-dihydroxypropyl ester] | 200 | >10 | –
9 | CC1(C)C(=O)N(c2ccc(C#N)c(C(F)(F)F)c2)C(=S)N1c1ccc2sc(NC(N)=O)nc2c1 [Example 18, {5-[3-(4-cyano-3-trifluoromethylphenyl)-5,5-dimethyl-4-oxo-2-thioxoimidazolidin-1-yl]-benzothiazol-2-yl}urea] | – | >10 | 100
10 | CCS(=O)(=O)N1CCC(N2C(=O)N(c3ccc(C#N)c(C(F)(F)F)c3C)C(=O)C2(C)C)CC1 [Example 10, 4-[3-(1-ethanesulfonylpiperidin-4-yl)-4,4-dimethyl-2,5-dioxoimidazolidin-1-yl]-2-trifluoromethyl-3-methylbenzonitrile] | 600 | >10 | –
11 | CCS(=O)(=O)N1CCC(N2C(=S)N(c3ccc(C#N)c(Cl)c3)C(=O)C2(C)C)CC1 [Example 9, 4-[3-(1-ethanesulfonylpiperidin-4-yl)-4,4-dimethyl-5-oxo-2-thioxoimidazolidin-1-yl]-2-chlorobenzonitrile] | – | >10 | 300
12 | CN1CCN(CCOC(=O)Nc2cc(N3C(=O)N(c4ccc(C#N)c(C(F)(F)F)c4)C(=O)C3(C)C)ccc2Cl)CC1 [Example 29, {2-chloro-5-[3-(4-cyano-3-trifluoromethylphenyl)-5,5-dimethyl-2,4-dioxoimidazolidin-1-yl]phenyl}-carbamic acid 2-(4-methylpiperazin-1-yl)ethyl ester] | 500 | >10 | –
13 | CC1(C)C(=O)N(c2ccc(C#N)c(Cl)c2)C(=S)N1c1ccc(Cl)c(NC(=O)OCCO)c1 [Example 47, {2-chloro-5-[3-(4-cyano-3-chlorophenyl)-5,5-dimethyl-4-oxo-2-thioxoimidazolidin-1-yl]phenyl}carbamic acid 2-hydroxyethyl ester] | – | >10 | 300
14 | CC1(C)C(=O)N(c2ccc(C#N)c(C(F)(F)F)c2)C(=O)N1c1ccc(Cl)c(NC(=O)OCCCCO)c1 [Example 33, {2-chloro-5-[3-(4-cyano-3-trifluoromethylphenyl)-5,5-dimethyl-2,4-dioxoimidazolidin-1-yl]phenyl}-carbamic acid 4-hydroxybutyl ester] | – | >10 | 300
15 | CCOC(=O)N1CCC(N2C(=S)N(c3ccc(C#N)c(Cl)c3)C(=O)C2(C)C)CC1 [Example 2, 4-[3-(1-ethoxycarbonylpiperidin-4-yl)-4,4-dimethyl-5-oxo-2-thioxoimidazolidin-1-yl]-2-chlorobenzonitrile] | – | 8 | 80
16 | CC1(C)C(=O)N(c2ccc(C#N)c(C(F)(F)F)c2)C(=O)N1c1ccc(Cl)c(NC(=O)OCCCO)c1 [Example 27, {2-chloro-5-[3-(4-cyano-3-trifluoromethylphenyl)-5,5-dimethyl-2,4-dioxoimidazolidin-1-yl]phenyl}-carbamic acid 3-hydroxypropyl ester] | 400 | >10 | –
17 | CCC(=O)N1CCC(N2C(=O)N(c3ccc(C#N)c(Cl)c3C)C(=O)C2(C)C)CC1 [Example 12, 4-[3-(1-propionylpiperidin-4-yl)-4,4-dimethyl-2,5-dioxoimidazolidin-1-yl]-2-chloro-3-methylbenzonitrile] | 700 | >10 | –
18 | CCC(=O)N1CCC(N2C(=S)N(c3ccc(C#N)c(Cl)c3)C(=O)C2(C)C)CC1 [Example 7, 4-[3-(1-propionylpiperidin-4-yl)-4,4-dimethyl-5-oxo-2-thioxoimidazolidin-1-yl]-2-chlorobenzonitrile] | – | >10 | 300
